In patent US20200054633A1 (priority 2017, published 2020):

Details: 600 mg, OST placebo; N=74
From the text: This study followed a randomized, double-blind, placebo-controlled, parallel-group, multicenter design.
Analysis set for safety: Safety Set included all subjects who received at least 1 dose of study drug.

SMILES: O=C(O)[C@H]1C2CCC(CC2)[C@@H]1Nc1nc(-c2c[nH]c3ncc(F)cc23)ncc1F [Compound (1), Pimodivir]
- Any TEAE: 39 (52.7%)
- Any TEAE at least possibly related to study medication: 26 (35.1%)
- Any TEAE leading to a temporary stop of study medication: 2 (2.7%)
- Any TEAE leading to permanent stop of study medication: 3 (4.1%)
- Any TEAE with fatal outcome: 0
- Grade 3 TEAE: Anaemia: 0
- Grade 3 TEAE: Balance disorder: 0
- Grade 3 TEAE: Blood and lymphatic system disorders: 1 (1.4%)
- Grade 3 TEAE: Blood creatine phosphokinase increased: 1 (1.4%)
- Grade 3 TEAE: Bronchitis: 0
- Grade 3 TEAE: Constipation: 1 (1.4%)
- Grade 3 TEAE: Diarrhoea: 1 (1.4%)
- Grade 3 TEAE: Fatigue: 0
- Grade 3 TEAE: Gastrointestinal disorders: 2 (2.7%)
- Grade 3 TEAE: General disorders and administration site conditions: 0
- Grade 3 TEAE: Hyperkalaemia: 1 (1.4%)
- Grade 3 TEAE: Infections and infestations: 0
- Grade 3 TEAE: Investigations: 1 (1.4%)
- Grade 3 TEAE: Lymphopenia: 1 (1.4%)
- Grade 3 TEAE: Metabolism and nutrition disorders: 1 (1.4%)
- Grade 3 TEAE: Nausea: 0
- Grade 3 TEAE: Nervous system disorders: 0
- Grade 3 TEAE: Neutropenia: 0
- Grade 3 TEAE: Neutrophil count decreased: 0
- Grade 3 TEAE: Protein urine present: 0
- Grade 3 TEAE: Syncope: 0
- Grade 3 TEAE: Thrombocytopenia: 0
- Grade 3 TEAE: Vomiting: 0
- TEAE: Abdominal discomfort: 1 (1.4%) n (%)
- TEAE: Abdominal pain: 0 n (%)
- TEAE: Abdominal pain upper: 2 (2.7%) n (%)
- TEAE: Abdominal tenderness: 0 n (%)
- TEAE: Alanine aminotransferase increased: 2 (2.7%) n (%)
- TEAE: All events: 39 (52.7%) n (%)
- TEAE: Anaemia: 0 n (%)
- TEAE: Aphthous stomatitis: 0 n (%)
- TEAE: Aspartate aminotransferase increased: 1 (1.4%) n (%)
- TEAE: Atrioventricular block first degree: 0 n (%)
- TEAE: Back pain: 1 (1.4%) n (%)
- TEAE: Bacterial vaginosis: 0 n (%)
- TEAE: Balance disorder: 0 n (%)
- TEAE: Blood and lymphatic system disorders: 3 (4.1%) n (%)
- TEAE: Blood bicarbonate decreased: 0 n (%)
- TEAE: Blood bilirubin decreased: 0 n (%)
- TEAE: Blood bilirubin increased: 0 n (%)
- TEAE: Blood creatine phosphokinase increased: 1 (1.4%) n (%)
- TEAE: Blood creatinine increased: 0 n (%)
- TEAE: Blood glucose increased: 1 (1.4%) n (%)
- TEAE: Blood potassium increased: 1 (1.4%) n (%)
- TEAE: Blood pressure diastolic increased: 1 (1.4%) n (%)
- TEAE: Blood urine: 0 n (%)
- TEAE: Bradycardia: 1 (1.4%) n (%)
- TEAE: Bronchitis: 0 n (%)
- TEAE: Cardiac disorders: 1 (1.4%) n (%)
- TEAE: Constipation: 1 (1.4%) n (%)
- TEAE: Contusion: 1 (1.4%) n (%)
- TEAE: Cough: 1 (1.4%) n (%)
- TEAE: Decreased appetite: 0 n (%)
- TEAE: Dehydration: 0 n (%)
- TEAE: Diabetes mellitus: 0 n (%)
- TEAE: Diarrhoea: 20 (27.0%) n (%)
- TEAE: Dizziness: 2 (2.7%) n (%)
- TEAE: Dry mouth: 1 (1.4%) n (%)
- TEAE: Dry skin: 1 (1.4%) n (%)
- TEAE: Dysgeusia: 0 n (%)
- TEAE: Dyspepsia: 0 n (%)
- TEAE: Dyspnoea: 0 n (%)
- TEAE: Dysuria: 0 n (%)
- TEAE: Ear and labyrinth disorders: 0 n (%)
- TEAE: Ear discomfort: 0 n (%)
- TEAE: Ecchymosis: 0 n (%)
- TEAE: Electrocardiogram ST segment depression: 0 n (%)
- TEAE: Enteritis: 0 n (%)
- TEAE: Fatigue: 0 n (%)
- TEAE: Fungal infection: 0 n (%)
- TEAE: Gamma-glutamyltransferase increased: 1 (1.4%) n (%)
- TEAE: Gastrointestinal disorders: 22 (29.7%) n (%)
- TEAE: General disorders and administration site conditions: 0 n (%)
- TEAE: Glomerular filtration rate decreased: 1 (1.4%) n (%)
- TEAE: Gout: 0 n (%)
- TEAE: HIV antibody positive: 0 n (%)
- TEAE: HIV test positive: 0 n (%)
- TEAE: Haematuria: 0 n (%)
- TEAE: Haemoglobin decreased: 0 n (%)
- TEAE: Haemoglobin increased: 0 n (%)
- TEAE: Headache: 1 (1.4%) n (%)
- TEAE: Hepatic enzyme increased: 1 (1.4%) n (%)
- TEAE: Hepatitis C: 0 n (%)
- TEAE: Herpes simplex: 0 n (%)
